A word on the IC50: it is the concentration needed to halve the response being measured. In general, bioavailability refers to dose-corrected exposure relative to a reference, in per cent. A low value points to little systemic uptake. Usually AUC(0-t) stands for exposure summed from dosing to a finite time, without extrapolation to infinity. Read a low AUC(0-t) as less exposure. Broadly, the Cmax is the maximum level reached in the sampled fluid or tissue. In general, clearance refers to the rate of elimination divided by the concentration. High values mean efficient removal, low ones inefficient removal. For orientation: half-life means the time needed for the level to fall by half in the phase considered. A high value points to slow decline. One may read the Tmax as the time from dosing to the highest level.

Where two headings read alike, the source gives them in different places. Bounds are passed on as bounds.

This note sets out measurements from EP4778929A1, “NOVEL TYPE I TOPOISOMERASE INHIBITOR, AND PREPARATION METHOD THEREFOR AND USE THEREOF” (priority 2023, dated 2025).

The target in one series is T1, topoisomerase I (Topo I) (Homo sapiens, UniProt P11387).
T1 sequence (P11387 1-765): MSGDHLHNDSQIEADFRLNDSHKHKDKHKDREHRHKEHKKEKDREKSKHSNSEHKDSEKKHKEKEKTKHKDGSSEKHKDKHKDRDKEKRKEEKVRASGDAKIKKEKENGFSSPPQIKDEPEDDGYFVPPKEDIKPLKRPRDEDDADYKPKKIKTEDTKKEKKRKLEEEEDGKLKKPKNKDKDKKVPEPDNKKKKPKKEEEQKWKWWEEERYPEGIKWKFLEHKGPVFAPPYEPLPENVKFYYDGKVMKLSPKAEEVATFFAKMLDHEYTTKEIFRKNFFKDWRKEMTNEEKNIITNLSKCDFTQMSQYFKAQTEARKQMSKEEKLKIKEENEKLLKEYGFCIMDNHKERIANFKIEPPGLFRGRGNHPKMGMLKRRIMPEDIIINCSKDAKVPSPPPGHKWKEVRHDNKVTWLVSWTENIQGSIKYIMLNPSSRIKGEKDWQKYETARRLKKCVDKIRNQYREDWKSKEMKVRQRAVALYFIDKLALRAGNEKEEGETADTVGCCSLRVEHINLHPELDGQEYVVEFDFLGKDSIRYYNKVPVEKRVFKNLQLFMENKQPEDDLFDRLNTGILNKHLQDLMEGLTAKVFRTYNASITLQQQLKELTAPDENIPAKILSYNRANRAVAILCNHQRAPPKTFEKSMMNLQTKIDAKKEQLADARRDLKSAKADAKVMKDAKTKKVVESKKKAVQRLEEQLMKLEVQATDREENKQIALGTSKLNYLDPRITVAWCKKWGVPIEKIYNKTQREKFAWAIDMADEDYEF
Put plainly: Topo I enzyme-inhibitory activity by agarose-gel electrophoresis (plasmid relaxation). The series is classed as biochemical. The text has this:
Test Example 1. Determination of Topo I Enzyme-Inhibitory Activity by Agarose-Gel Electrophoresis
Principle: Type-I topoisomerase (Topo I) relaxes positive and negative supercoils by introducing transient single-strand breaks and forming reversible cleavage complexes (Topo I-DNA covalent complexes). Gel electrophoresis can resolve DNA species of identical molecular weight but different topology: supercoiled plasmid migrates fastest, whereas the nicked, relaxed form moves more slowly. Quantifying the decrease in supercoiled DNA therefore provides a direct measure of Topo I activity.
Experimental Procedure: A 1× reaction buffer was prepared (20 mM Tris-HCl pH 7.5, 200 mM NaCl, 0.25 mM EDTA, 5 % (v/v) glycerol, 0.5 µg pNO1 plasmid substrate). Test compounds (5 % DMSO final) were added to the buffer, followed by Topo I enzyme (0.75 U per reaction). After gentle mixing, reactions were incubated at 37 °C for 30 min. Positive (enzyme + vehicle) and negative (no enzyme) controls were included in parallel. Reactions were terminated by adding STEB buffer and chloroform/iso-amyl alcohol (24:1, v/v), vortexed and centrifuged for 2 min. The aqueous (upper) phase was loaded onto a 1 % (w/v) agarose gel, electrophoresed for 1-2 h, stained with GelRed, and imaged under UV trans-illumination.
Data Analysis: Band intensities of supercoiled DNA were quantified with image-analysis software. Relaxation activity (%) was calculated as (Max-Sample)/ (Max-Min)*100%, where Max = intensity of the no-enzyme negative control, Min = intensity of the vehicle-only positive control, and Sample = intensity of the compound-treated lane. Dose-response data (compound concentration, X; relaxation activity %, Y) were fitted in Excel or GraphPad Prism 5.0 using the four-parameter logistic equation: Y=Bottom + (Top-Bottom)/(1+(IC50/X)[…]) to derive the IC50 value for each compound.
Table 1. Compound-mediated inhibition of topoisomerase I (Topo I) enzymatic activity

In a further series the test system is HCT116 cells. Put plainly: Inhibition of cell proliferation by CTG (CellTiter-Glo) luminescence assay. The series is classed as cell-based. To be noted: Homo sapiens, HCT-116; 72 h incubation, CellTiter-Glo; read-out: HCT116, IC50. The source says:
Test Example 2. Determination of Compound-Mediated Inhibition of Cell Proliferation by CTG (CellTiter-Glo) Luminescence Assay
Principle: The Promega CellTiter-Glo™ luciferase reagent was used. Luciferase consumes ATP to generate light; metabolically active cells continuously produce ATP through respiration and other processes. After adding an equal volume of CellTiter-Glo™ reagent to the culture medium, the resulting luminescence is directly proportional to the ATP content, which in turn correlates with the number of viable cells. Thus, the assay quantifies compound-induced suppression of cell proliferation.
Experimental Procedure: HCT116 cells (ATCC) were revived in complete medium (McCoy's 5a + 10 % FBS). After two passages, exponentially growing cells were harvested, counted, and resuspended to the appropriate density. A 100 µL aliquot of cell suspension (2 000 cells per well) was seeded into 96-well plates and incubated overnight (37 °C, 5 % CO2, 100 % relative humidity). Test compounds were dissolved in DMSO to prepare 10 mM stock solutions and serially diluted 1:3 in DMSO to generate nine concentration steps. Each DMSO solution was further diluted 200-fold into medium; 25 µL of the resulting solutions were added to the cell plates (final DMSO concentration […]). After 72 h incubation (37 °C, 5 % CO2), 50 µL of CellTiter-Glo reagent was added per well. Plates were shaken gently, incubated for 30 min at room temperature in the dark, and luminescence was read on an EnVision multimode reader. Percent inhibition was calculated as: Inhibition % = (1−As/Ac) × 100, [formula] where As = signal from compound-treated wells and Ac = signal from DMSO-only control wells. Concentration-response data were fitted in Excel with the XLfit add-in using the four-parameter logistic equation: Y = Bottom + (Top−Bottom)/[1+((IC50/X))^(∧)HillSlope], [formula] to derive the IC50 value for each compound. Table 2. IC50 of compounds
In general terms: Cellular ATP, detected with luciferase, serves as a proxy for viable cell number.

The nature of another series: in vivo. Particulars: male, CD-1, mouse. The protocol:
Test Example 3. Pharmacokinetic Study for Determining Compound Concentrations in Mice by LC-MS/MS
Principle: LC-MS/MS is used to quantify the plasma concentrations of the test article at successive time points, generating an in-vivo pharmacokinetic profile.
Procedure: The test compound was dissolved in DMSO to prepare a 10 mg/mL stock solution. This stock was further diluted to 1 mg/mL with a vehicle consisting of 10 % DMSO + 10 % Solutol HS-15 + 80 % saline. Male CD-1 mice (JH Laboratory Animal Co., LTD) were employed; six animals were assigned per compound group. […] Serial blood samples (~50 µL whole blood, K2EDTA anticoagulant) were collected at 0.083, 0.25, 0.5, 1, 2, 4, 8 and 24 h (three mice per time point in a crossover design). Blood was centrifuged at 6 000 g for 5 min at 4 °C; plasma was harvested and stored at -70 °C until analysis. Plasma drug concentrations were determined by LC-MS/MS.
Calibration Curve and QC Preparation: Working solutions were prepared by dilution with MeOH:H2O (1:1). For each calibration or QC level, 3 µL of working solution was spiked into 57 µL of blank mouse plasma.
Sample Processing: To 30 µL of plasma was added 200 µL of methanol containing the internal standard (propranolol, 40 ng mL^-1). After vortex-mixing for 1 min, the mixture was centrifuged at 12 000 rpm for 10 min. A 100 µL aliquot of the supernatant was transferred to a clean plate for injection.
Pharmacokinetic Analysis: Concentration-time data were analyzed with WinNonlin 8.2 using a non-compartmental approach to derive PK parameters including Cmax, Tmax, AUC and terminal elimination half-life (t1/2). AUC was calculated by the linear-up/log-down trapezoidal method. Table 3. Pk parameters of compounds

[1] abbreviates: 0.75 U Topo I, pNO1 plasmid, 37 °C, 30 min; compounds listed by group (Group A / Group B); read-out: inhibition of topoisomerase I (Topo I) enzymatic activity, IC50.
Where [2] appears, read: read-out: inhibition of topoisomerase I (Topo I) enzymatic activity, IC50; 0.75 U Topo I, pNO1 plasmid, 37 °C, 30 min; compounds listed by group (Group A / Group B).

As for `CC[C@@]1(O)C(=O)OCc2c1cc1n(c2=O)Cc2c-1c(=O)c1cc(F)c([C@H](C)O)cc1n2C1CCCC1` (single isomer, unassigned) [Example 293], the IC50 on topoisomerase I (Topo I) (setting [1]) was in the range of 200 to 500 nM.
The same measure, in the same setting: in the case of `CC[C@@]1(O)C(=O)OCc2c1cc1n(c2=O)Cc2c-1c(=O)c1cc(F)c([C@@H](C)O)cc1n2C1CCCC1` (single isomer, unassigned) [Example 294] it was 200 to 500 nM.
`CC[C@@]1(O)C(=O)OCc2c1cc1n(c2=O)Cc2c-1c(=O)c1ccccc1n2C` [Example 1, (S)-4-ethyl-4-hydroxy-11-methyl-1,12-dihydro-14H-pyrano[3,4:6,7]indolizino[2,1 - b]quinoline-3,6,14(4H,11H)-trione]: the 50% inhibitory concentration (IC50) on topoisomerase I (Topo I) (setting [1]) is under 200 nM; with HCT116 cells, under 20 nM.
The matching figures for `CC[C@@]1(O)C(=O)OCc2c1cc1n(c2=O)Cc2c-1c(=O)c1cc(F)c(F)cc1n2C` [Example 5, (S)-4-ethyl-8,9-difluoro-4-hydroxy-11-methyl-1,12-dihydro-14H-pyrano[3',4':6,7]indolizino[2,1-b]quinoline-3,6,14(4H,11H)-trione]: under 200 nM and under 20 nM.
The matching figures for `CC[C@@]1(O)C(=O)OCc2c1cc1n(c2=O)Cc2c-1c(=O)c1cc(F)ccc1n2C` [Example 6, (S)-4-ethyl-8-fluoro-4-hydroxy-11-methyl-1,12-dihydro-14H-pyrano[3',4':6,7]indazino[2,1-b]quinoline-3,6,14(4H,11H)-trione]: under 200 nM and under 20 nM.
Take `CC[C@@]1(O)C(=O)OCc2c1cc1n(c2=O)Cc2c-1c(=O)c1cc(F)ccc1n2CCNC1CC1` [Example 96, (S)-11-(2-(cyclopropylamino)ethyl)-4-ethyl-8-fluoro-4-hydroxy-1,12-dihydro-14H-pyrano[3,4:6,7]indolizino[2,1-b]quinoline-3,6,14 (4H,11H)-trione]: the half-inhibitory concentration (IC50) at topoisomerase I (Topo I) (setting [2]) was under 200 nM.
Still for that read-out and setting: in the case of `CC[C@@]1(O)C(=O)OCc2c1cc1n(c2=O)Cc2c-1c(=O)c1cc3c(cc1n2CCN(C)C1CCCC1)OCO3` [Example 179] it was 200 to 500 nM; in that of `CC[C@@]1(O)C(=O)OCc2c1cc1n(c2=O)Cc2c-1c(=O)c1cc(F)ccc1n2CCN1CCCC1` [Example 193], 200 to 500 nM.
On to `CC[C@@]1(O)C(=O)OCc2c1cc1n(c2=O)Cc2c-1c(=O)c1cc(F)ccc1n2[C@@H]1CCN(C2CCCC2)C1` [Example 257, (S)-4-ethyl-8-fluoro-4-hydroxy-11-((R)-1-cyclopentylpyrrolidin-3-yl)-1,12-dihydro-14H-pyrano[3',4':6,7]indolizino[2,1-b] quinoline-3,6,14(4H,11H)-trione], for which the IC50 in the series on HCT116 cells is under 20 nM. This compound also returned a bioavailability in “in vivo” of 40.2%. In the series “in vivo” (iv, 1 mg/kg), this compound had an exposure AUC(0-t) of 352 ng·h/mL, a Cmax of 635 ng/mL, a clearance of 47.4 mL/min/kg and a half-life of 1.24 h. In addition, in the series “in vivo” (po, 10 mg/kg), the AUC(0-t) was found to be 1370 ng·h/mL, the concentration peaked (Cmax) at 528 ng/mL, the time to peak (Tmax) was 0.83 h and the half-life is 7.95 h.
Consider `CC[C@@]1(O)C(=O)OCc2c1cc1n(c2=O)Cc2c-1c(=O)c1cc(F)ccc1n2[C@@H]1CCN(CC2CC2)C1` [Example 259, (S)-11-((R)-1-(cyclopropylmethyl)pyrrolidin-3-yl)-4-ethyl-8-fluoro-4-hydroxy-1H-pyrano[3',4':6,7]indolizino[2,1-b]quinoline-3,6,14(4H,11H,12H)-trione], for which, in the series with HCT116 cells, the half-inhibitory concentration (IC50) is under 20 nM. Besides, the bioavailability in the series “in vivo” worked out at 46.6%. For the same compound, in the series “in vivo” (iv, 1 mg/kg), the AUC(0-t) came out at 524 ng·h/mL, the Cmax was 497 ng/mL, the clearance amounted to 31.8 mL/min/kg and the half-life was 0.96 h. In “in vivo” (po, 10 mg/kg), the AUC(0-t) came to 2400 ng·h/mL, the Cmax was found to be 1230 ng/mL, the Tmax was determined as 0.83 h and the half-life was 6.24 h.
On to `CC[C@@]1(O)C(=O)OCc2c1cc1n(c2=O)Cc2c-1c(=O)c1cc(F)c(CO)cc1n2C1CCCC1` [Example 291, (S)-11-cyclopentyl-4-ethyl-8-fluoro-4-hydroxy-9-(hydroxymethyl)-1,12-dihydro-14H-pyrano[3,4:6,7]indolizino[2,1-b]quinoline-3,6,14(4H,11H)-trione], for which the IC50 at topoisomerase I (Topo I) (setting [1]) is 200 to 500 nM.
For the compound `CC[C@@]1(O)C(=O)OCc2c1cc1n(c2=O)Cc2c-1c(=O)c1cc(F)c(CC(C)O)cc1n2C1CCCC1` (stereo partly drawn) [Example 292, (4S)-11-cyclopentyl-4-ethyl-8-fluoro-4-hydroxy-9-(2-hydroxypropyl)-1,12-dihydro-14H-pyrano[3,4:6,7]indolizino[2,1-b]quinoline-3,6,14(4H,11H)-trione], the IC50 on topoisomerase I (Topo I) (setting [1]) lay within 200 to 500 nM.
